The values below come from patent US12466856B2, “Echinocandin analogues and preparation method therefor” (SHANGHAI SENHUI MEDICINE CO., LTD., priority 2019, dated 2025).

Read-outs that look alike come from different tables or passages of the source. Starred links: 1 amine or outer side, 2 acyl side, 3 side chain; linkers in the order of their positions; H or OH if unused. Positions of bridges follow the written chain, without caps; N, C: chain ends. Non-standard residues stand in square brackets, D forms with d. Residues, ends and D or L forms follow the SMILES beside them. *: point of attachment. Orn(4R-OH,5R-OCH2CH2NMe3+) = C[N+](C)(C)CCO[C@@H](N[*:3])[C@H](O)C[C@H](N[*:1])C(=O)[*:2]; hTyr(3S-OH,4S-OH) = N[C@H](C(=O)O)[C@H](O)[C@@H](O)c1ccc(O)cc1; X2 = CCCCCCc1ccc(-c2ccc(-c3ccc(C(=O)*)cc3)cc2)cc1; X3 = CCCCCNc1ccc(-c2ccc(-c3ccc(C(=O)*)cc3)cc2)cc1; Pro(3S-OH,4S-Me) = C[C@H]1CN[C@H](C(=O)O)[C@H]1O; Hyp = O=C(O)[C@@H]1C[C@@H](O)CN1

What all share (type): cell-based
Experiment [1] has as its system Candida albicans ATCC 90029. Briefly: MIC assay (CLSI M27-A3), Candida albicans ATCC 90029. To be noted: first batch, 24 h, 35° C., ≥50% growth inhibition. How it is done: (§1) After a test compound was serially diluted, an MIC (minimum inhibitory concentration) assay was performed on the standard Candida strain and an MEC (minimum effective concentration) assay on the standard Aspergillus strain. The MIC assay was performed according to the guidelines of the Clinical and Laboratory Standards Institute (CLSI M27-A3) and the MEC assay according to the guidelines of the Clinical and Laboratory Standards Institute (CLSI M38-A2).
(§2) The frozen strain was passaged at least twice, and a single colony was picked and resuspended in normal saline or sterile water in a tube. The suspension was vortexed and adjusted to 0.5 McF (1×10^6 to 5×10^6 CFU/mL) using a spectrophotometer at wavelength 530 nm. The suspension was 50-fold diluted with normal saline and then 20-fold diluted with 1×RPMI 1640 broth (1×10^3 to 5×10^3 CFU/mL). 10 μL of the suspension was applied to an SDA plate for colony counting, with a range from about 10 to 50 single colonies.
(§3) At this time, the bacterium concentration in each well should be 0.5×10^3 to 2.5×10^3 CFU/mL.
(§4) For echinocandin drugs, Aspergillus was incubated at 28° C. for 21-26 h, and then the MEC results were read.
(§5) Yeast-type fungi: A disposable sealing film was applied to the 96-well plate, and the mixture was well mixed by shaking. Observation was performed through a plate reader with the naked eye. Comparisons were made to the growth control, and the minimum compound concentration corresponding to ≥50% growth inhibition was defined as MIC. Pictures were taken and saved using an automatic plate reader.

Experiment [2] has as its system Candida parapsilosis ATCC 22019. Briefly: MIC assay (CLSI M27-A3), Candida parapsilosis ATCC 22019. How it is done: as §1, §2, §3, §4, §5
Experiment [3] concerns Aspergillus flavus ATCC 28539. Put plainly: MEC assay (CLSI M38-A2), Aspergillus flavus ATCC 28539. To be noted: first batch; 28° C., 21-26 h. The procedure:
The MIC assay was performed according to the guidelines of the Clinical and Laboratory Standards Institute (CLSI M27-A3) and the MEC assay according to the guidelines of the Clinical and Laboratory Standards Institute (CLSI M38-A2).
Colonies on the plate were covered with about 1 mL of 0.85% normal saline or sterile water (polysorbate 20 was added at a final concentration of 0.1%-0.01%). […] The homogeneous upper layer of the suspension was transferred to a new sterile tube, which was then sealed and vortexed for 15 s (be careful as the suspension may produce an aerosol when the cover is removed). The concentration of the suspension was adjusted until an OD value of 0.09-0.13 was achieved using a spectrophotometer at 530 nm. […] 100 μL of sample was added to each well of the 96-well plate within 2 h after dilution (the final spore concentration in the susceptibility testing plate was at 0.4×10^4 to 5×10^4 CFU/mL).
Aspergillus: For echinocandin drugs, comparisons were made to the growth control under a plate reader, and the minimum drug concentration that could cause the hyphae to form small, round, compact hyphal particles was defined as MEC. For accurate determination of MEC values, the plate must not be vortexed before reading.

For experiment [4], the system named is Meyerozyma guilliermondii ATCC 6260. Briefly: MIC assay (CLSI M27-A3), Meyerozyma guilliermondii ATCC 6260. The following applies: first batch, 24 h, 35° C. The procedure:
as §1, §2, §3, §4, §5

The test system of a further experiment is Candida krusei ATCC 6258. Put plainly: MIC assay (CLSI M27-A3), Candida krusei ATCC 6258. The procedure: as §1, §2, §3, §4, §5
For experiment [5], the system named is Candida tropicalis ATCC 750. Put plainly: MIC assay (CLSI M27-A3), Candida tropicalis ATCC 750. To be noted: first batch, 24 h, 35° C. The procedure:
as §1, §2, §3, §4, §5

For experiment [6], the system named is Candida glabrata ATCC 15126. Put plainly: MIC assay (CLSI M27-A3), Candida glabrata ATCC 15126. The following applies: first batch, 24 h, 35° C., ≥50% growth inhibition. The procedure:
as §1, §2, §3, §4, §5

Experiment [7] relates to Candida albicans (azole drug-resistant strain) R358. Put plainly: MIC assay (CLSI M27-A3), Candida albicans azole drug-resistant strain R358. To be noted: Candida albicans, read-out: MIC, Candida albicans (azole drug-resistant strain) R358. How it is done: as §1, §2, §3, §4, §5
Experiment [8] concerns Candida glabrata ATCC 36583. Briefly: MIC assay (CLSI M27-A3), Candida glabrata ATCC 36583. To be noted: Nakaseomyces glabratus, ATCC36583, read-out: MIC, Candida glabrata ATCC 36583. The procedure: as §1, §2, §3, §4, §5
For experiment [9], the system named is Candida albicans (azole drug-resistant strain) R357. Put plainly: MIC assay (CLSI M27-A3), Candida albicans azole drug-resistant strain R357. To be noted: Candida albicans, read-out: MIC, Candida albicans (azole drug-resistant strain) R357. The procedure:
as §1, §2, §3, §4, §5

The subject of experiment [10] is Candida albicans ATCC 90028. Briefly: MIC assay (CLSI M27-A3), Candida albicans ATCC 90028. The following applies: Candida albicans. How it is done:
as §1, §2
At this time, the bacterium concentration in each well should be 0.5×10^3 to 2.5×10^3 CFU/mL. […]
as §5

In experiment [11] the test system is Candida tropicalis (amphotericin-resistant strain) ATCC 200956. Put plainly: microbe, parasite or virus in culture. To be noted: Candida tropicalis, ATCC200956, read-out: MIC, Candida tropicalis (amphotericin-resistant strain) ATCC 200956. The procedure: as §1, §2, §3, §4, §5
Experiment [12] has as its system Candida albicans ATCC 44858. Put plainly: MIC assay (CLSI M27-A3), Candida albicans ATCC 44858. To be noted: Candida albicans, ATCC44858, read-out: MIC, Candida albicans ATCC 44858. The procedure:
as §1, §2, §3, §4, §5

Setting [13] is: ATCC90028, 24 h, read-out: MIC, Candida albicans ATCC 90028.
[14] abbreviates: ATCC90028, read-out: MIC, Candida albicans + 50% human serum ATCC 90028.
Setting [15] is: first batch, 24 h, 35° C., quality control strain.

Consider `CCCCCOc1ccc(-c2ccc(-c3ccc(C(=O)N[C@H]4C[C@@H](O)[C@@H](OCC5CCCC[N+]5(C)C)NC(=O)[C@@H]5[C@@H](O)[C@@H](C)CN5C(=O)[C@H]([C@@H](C)O)NC(=O)[C@H]([C@H](O)[C@@H](O)c5ccc(O)cc5)NC(=O)[C@@H]5C[C@@H](O)CN5C(=O)[C@H]([C@@H](C)O)NC4=O)cc3)cc2)cc1` (stereo partly shown) [Example 2], for which the MIC in experiment [1] (Candida albicans, ATCC90029, read-out: MIC, Candida albicans ATCC 90029) stood at 0.125 µg/mL; in [2] (Lodderomyces parapsilosis, ATCC22019, 24 h, read-out: MIC, Candida parapsilosis ATCC 22019), 1 µg/mL; in experiment [4] (Meyerozyma guilliermondii, ATCC6260, read-out: MIC, Meyerozyma guilliermondii ATCC 6260), 2 µg/mL; with Candida krusei ATCC 6258 (Pichia kudriavzevii, ATCC6258, 24 h, read-out: MIC, Candida krusei ATCC 6258) it was 0.125 µg/mL; in experiment [5] (Candida tropicalis, ATCC750, read-out: MIC, Candida tropicalis ATCC 750), 0.016 µg/mL; in experiment [6] (Nakaseomyces glabratus, ATCC15126, read-out: MIC, Candida glabrata ATCC 15126) it was 0.125 µg/mL. In experiment [3], the “MEC, Aspergillus flavus ATCC 28539” value turned out to be 0.031 µg/mL.

For the compound `CCCCCNc1ccc(-c2ccc(-c3ccc(C(=O)N[C@H]4C[C@@H](O)[C@@H](OCC[N+](C)(C)C)NC(=O)[C@@H]5[C@@H](O)[C@@H](C)CN5C(=O)[C@H]([C@@H](C)O)NC(=O)[C@H]([C@H](O)[C@@H](O)c5ccc(O)cc5)NC(=O)[C@@H]5C[C@@H](O)CN5C(=O)[C@H]([C@@H](C)O)NC4=O)cc3)cc2)cc1` [Example 17] (X3-[Orn(4R-OH,5R-OCH2CH2NMe3+)]T[Hyp][hTyr(3S-OH,4S-OH)]T[Pro(3S-OH,4S-Me)]; lactam 1-C), the MIC in experiment [7] is 0.25 µg/mL; in experiment [8], 0.5 µg/mL; in experiment [9], 0.5 µg/mL; in experiment [10] (setting [13]), 0.25 µg/mL; in experiment [10] (setting [14]) it was 0.25 µg/mL; in experiment [11] it was 0.25 µg/mL. Also, the MIC in [12] turned out to be 0.25 µg/mL.

Regarding `CCCCCCc1ccc(-c2ccc(-c3ccc(C(=O)N[C@H]4C[C@@H](O)[C@@H](OCC[N+](C)(C)C)NC(=O)[C@@H]5[C@@H](O)[C@@H](C)CN5C(=O)[C@H]([C@@H](C)O)NC(=O)[C@H]([C@H](O)[C@@H](O)c5ccc(O)cc5)NC(=O)[C@@H]5C[C@@H](O)CN5C(=O)[C@H]([C@@H](C)O)NC4=O)cc3)cc2)cc1` [Example 16] (X2-[Orn(4R-OH,5R-OCH2CH2NMe3+)]T[Hyp][hTyr(3S-OH,4S-OH)]T[Pro(3S-OH,4S-Me)]; lactam 1-C), the MIC came to 0.25 µg/mL in [7]; 0.25 µg/mL in experiment [8]; 0.25 µg/mL in [9]; 0.25 µg/mL in experiment [10] (setting [13]); 0.5 µg/mL in experiment [10] (setting [14]); 0.25 µg/mL in [11]. The MIC in [12] was 0.25 µg/mL.

As to “Caspofungin acetate [reference compound]”, the “MIC, Candida albicans ATCC 90029” value in [1] came to 0.063 µg/mL. Moreover, the “MIC, Candida parapsilosis ATCC 22019” value in [2] (setting [15]) is 1 µg/mL. In addition, the “MEC, Aspergillus flavus ATCC 28539” value in experiment [3] came out at 0.031 µg/mL. Also, the “MIC, Meyerozyma guilliermondii ATCC 6260” value in experiment [4] was 1 µg/mL. Also, the “MIC, Candida krusei ATCC 6258” value in the experiment on Candida krusei ATCC 6258 (setting [15]) turned out to be 1 µg/mL. Moreover, the “MIC, Candida tropicalis ATCC 750” value in [5] is 0.016 µg/mL. Also, the “MIC, Candida glabrata ATCC 15126” value in [6] came to 0.25 µg/mL.
